Patent publication US20170348381A1, “FORMULATION” (NovaBiotics Limited, priority 2016, published 2017)

What was measured:
Type in all cases: cell-based
[1] = tested on: A. fumigatus; assay: Antimicrobial susceptibility testing (CLSI M27-A3/M38-A2, chequerboard), MIC100, Example 2; settings: for MIC100 of the antifungal in combination with Novamycin (+): in combination with MIC100 and sub-MIC100 concentrations of Novamycin; for MIC: Aspergillus fumigatus
Description: (§1) Antimicrobial susceptibility testing was performed based on CLSI approved standards M27-A3 and M38-A2. The effects of antimicrobial combinations were evaluated using a chequerboard method (Burkhart et al., 2006) in CLSI conditions.
(§2) Table 1. The MIC100 of clinically used antifungals individually (−) and in combination (+) with Novamycin®.
(§3) (−)=MIC100 (μg/mL) of the antifungal alone (+)=MIC100 (μg/mL) of the antifungal in combination with Novamycin®—=Not analysed

[2] = tested on: C. albicans; assay: as above; settings: for MIC100 of the antifungal in combination with Novamycin (+): in combination with MIC100 and sub-MIC100 concentrations of Novamycin; for MIC: Candida albicans
Description: as §1, §2, §3

[3] = tested on: E. dermatitidis; assay: as above; settings: for MIC100 of the antifungal in combination with Novamycin (+): in combination with MIC100 and sub-MIC100 concentrations of Novamycin; for MIC: Exophiala dermatitidis
Description: as §1, §2, §3

[4] = tested on: A. fumigatus; assay: Neutral, additive or synergistic effect of combinations of novamycin plus other antifungal agents, Example 3; settings: for Antifungal MIC100: antifungal alone; for MIC100 in Combination, AF: antifungal in combination with Novamycin; for Effect: combination of the antifungal with Novamycin
Description: as §1
(§4) The neutral, additive or synergistic effect of combinations of novamycin plus other antifungal agents was studied.

[5] = tested on: C. albicans; assay: as above; settings: for Antifungal MIC100: antifungal alone; for MIC100 in Combination, AF: antifungal in combination with Novamycin; for Effect: combination of the antifungal with Novamycin
Description: as §1, §4

SMILES	MIC100 of the antifungal alone (−) ([1]; antifungal alone) [µg/mL]	MIC100 of the antifungal in combination with Novamycin (+) [1] [µg/mL]	MIC100 of the antifungal alone (−) ([2]; antifungal alone) [µg/mL]	MIC100 of the antifungal in combination with Novamycin (+) [2] [µg/mL]	MIC100 of the antifungal alone (−) ([3]; antifungal alone) [µg/mL]	MIC100 of the antifungal in combination with Novamycin (+) [3] [µg/mL]	Antifungal MIC100 [4] [µg/mL]	MIC100 in Combination, AF [4] [µg/mL]	Effect [4]	Antifungal MIC100 [5] [µg/mL]	MIC100 in Combination, AF [5] [µg/mL]	Effect [5]	MIC ([1]; antifungal alone) [µg/mL]	MIC ([2]; antifungal alone) [µg/mL]	MIC ([3]; antifungal alone) [µg/mL]
C[C@@H]1[C@H](O)[C@@H](C)/C=C/C=C/C=C/C=C/C=C/C=C/C=C/[C@H](O[C@@H]2O[C@H](C)[C@@H](O)[C@H](N)[C@@H]2O)C[C@@H]2O[C@](O)(C[C@@H](O)C[C@@H](O)[C@H](O)CC[C@@H](O)C[C@@H](O)CC(=O)O[C@H]1C)C[C@H](O)[C@H]2C(=O)O [AmB, amphotericin B]	0.25	0.03	0.25	0.13	1	0.12	0.25	0.03	Additive	0.5	0.05	Additive	–	–	–
CC[C@H](C)C[C@H](C)CCCCCCCCC(=O)N[C@H]1C[C@@H](O)[C@@H](NCCN)NC(=O)[C@@H]2[C@@H](O)CCN2C(=O)[C@H]([C@H](O)CCN)NC(=O)[C@H]([C@H](O)[C@@H](O)c2ccc(O)cc2)NC(=O)[C@@H]2C[C@@H](O)CN2C(=O)[C@H]([C@@H](C)O)NC1=O [CFN, caspofungin]	–	0.06	–	0.03	–	3.94	0.06	0.04	Additive	0.5	0.03	Additive	0.06	0.5	31.2
CCC(C)n1ncn(-c2ccc(N3CCN(c4ccc(OCC5COC(Cn6cncn6)(c6ccc(Cl)cc6Cl)O5)cc4)CC3)cc2)c1=O (stereo not drawn) [ITZ, itraconazole]	–	–	–	–	–	2	–	–	–	–	–	–	–	–	4
CC[C@@H]([C@H](C)O)n1ncn(-c2ccc(N3CCN(c4ccc(OC[C@@H]5CO[C@@](Cn6cncn6)(c6ccc(F)cc6F)C5)cc4)CC3)cc2)c1=O [PCZ, pozaconazole]	–	0.125	–	0.06	–	–	0.25	0.125	Additive	< 0.03	< 0.03	Neutral	0.25	0.13	–
C[C@@H](c1ncncc1F)[C@](O)(Cn1cncn1)c1ccc(F)cc1F [Voriconazole]	–	–	–	–	–	–	0.25	0.25	Neutral	–	–	–	–	–	–
